Structures can show the parent of a compound that is named as a salt. Where two headings read alike, the source gives them in different places.
Target: T1, human hNET (Homo sapiens, UniProt P23975)
T1 construct: expressed in transfected cells; host or cells: MDCK-Net6 (MDCK cells stably transfected with hNET)
Test: Norepinephrine (NE) uptake assay in MDCK-Net6 cells
Format: cell-based
Protocol: MDCK-Net6 cells, stably transfected with human hNET (Pacholczyk, T., R. D. Blakely, and S. G. Amara, Nature, 1991, 350(6316): p. 350-4) were cultured in growth medium containing high glucose DMEM (Gibco, Cat. No. 11995), 10% FBS (dialyzed, heat-inactivated, US Bio-Technologies, Lot FBD1129HI) and 500 μg/ml G418 (Gibco, Cat. No. 10131). Cells were plated at 300,000/T75 flask and cells were split twice weekly. The JAR cell line (human placental choriocarcinoma) was purchased from ATCC (Cat. No. HTB-144). The cells were cultured in growth medium containing RPMI 1640 (Gibco, Cat. No. 72400), 10% FBS (Irvine, Cat. No. 3000), 1% sodium pyruvate (Gibco, Cat. No. 1136) and 0.25% glucose. Cells were plated at 250,000 cells/T75 flask and split twice weekly. For all assays, cells were plated in Wallac 96-well sterile plates (PerkinElmer, Cat. No. 3983498).
On day 1, cells were plated at 3,000 cells/well in growth medium and maintained in a cell incubator (37° C., 5% CO2). On day 2, growth medium was replaced with 200 μl of assay buffer (25 mM HEPES; 120 mM NaCl; 5 mM KCl; 2.5 mM CaCl2; 1.2 mM MgSO4; 2 mg/ml glucose (pH 7.4, 37° C.)) containing 0.2 mg/ml ascorbic acid and 10 μM pargyline. Plates containing cells with 200 μl of assay buffer were equilibrated for 10 minutes at 37° C. prior to addition of compounds. A stock solution of desipramine was prepared in DMSO (10 mM) and delivered to triplicate wells containing cells for a final tert concentration of 1 μM. Data from these wells were used to define non-specific NE uptake (minimum NE uptake). Test compounds were prepared in DMSO (10 mM) and diluted in assay buffer according to tert range (1 to 10,000 nM). Twenty-five microliters of assay buffer (maximum NE uptake) or tert compound were added directly to triplicate wells containing cells in 200 μl of assay buffer. The cells in assay buffer with tert compounds were incubated for 20 minutes at 37° C. To initiate the NE uptake, [^3H]NE diluted in assay buffer (120 nM final assay concentration) was delivered in 25 μl aliquots to each well and the plates were incubated for 5 minutes (37° C.). The reaction was terminated by decanting the supernatant from the plate. The plates containing cells were washed twice with 200 μl assay buffer (37° C.) to remove free radioligand. The plates were then inverted, left to dry for 2 minutes, then reinverted and air-dried for an additional 10 minutes. The cells were lysed in 25 μl of 0.25 N NaOH solution (4° C.), placed on a shake table and vigorously shaken for 5 minutes. After cell lysis, 75 μl of scintillation cocktail was added to each well and the plates were sealed with film tape. The plates were returned to the shake table and vigorously shaken for a minimum of 10 minutes to ensure adequate partitioning of organic and aqueous solutions. The plates were counted in a Wallac Microbeta counter (PerkinElmer) to collect the raw cpm data.
For each experiment, a data stream of cpm values collected from the Wallac Microbeta counter was downloaded to a Microsoft Excel statistical application program. Calculations of EC50 values were made using the transformed-both-sides logistic dose response program written by Wyeth Biometrics Department. The statistical program uses mean cpm values from wells representing maximum binding or uptake (assay buffer) and mean cpm values from wells representing minimum binding or uptake ((1 μM desipramine (hNET) or 1 μM paroxetine (hSERT)). Estimation of the EC50 value was completed on a log scale and the line was fit between the maximum and minimum binding or uptake values. All graphic data representation was generated by normalizing each data point to a mean percent based on the maximum and minimum binding or uptake values. The EC50 values reported from multiple experiments were calculated by pooling the raw data from each experiment and analyzing the pooled data as one experiment.

[1] = 1 μM test compound, [3H]NE uptake, MDCK-Net6 cells, read-out: % Inhibition @ 1 μM (hNET)
[2] = MDCK-Net6, read-out: % Inhibition @ 1 μM (hNET)

T1 sequence (P23975 whole entry): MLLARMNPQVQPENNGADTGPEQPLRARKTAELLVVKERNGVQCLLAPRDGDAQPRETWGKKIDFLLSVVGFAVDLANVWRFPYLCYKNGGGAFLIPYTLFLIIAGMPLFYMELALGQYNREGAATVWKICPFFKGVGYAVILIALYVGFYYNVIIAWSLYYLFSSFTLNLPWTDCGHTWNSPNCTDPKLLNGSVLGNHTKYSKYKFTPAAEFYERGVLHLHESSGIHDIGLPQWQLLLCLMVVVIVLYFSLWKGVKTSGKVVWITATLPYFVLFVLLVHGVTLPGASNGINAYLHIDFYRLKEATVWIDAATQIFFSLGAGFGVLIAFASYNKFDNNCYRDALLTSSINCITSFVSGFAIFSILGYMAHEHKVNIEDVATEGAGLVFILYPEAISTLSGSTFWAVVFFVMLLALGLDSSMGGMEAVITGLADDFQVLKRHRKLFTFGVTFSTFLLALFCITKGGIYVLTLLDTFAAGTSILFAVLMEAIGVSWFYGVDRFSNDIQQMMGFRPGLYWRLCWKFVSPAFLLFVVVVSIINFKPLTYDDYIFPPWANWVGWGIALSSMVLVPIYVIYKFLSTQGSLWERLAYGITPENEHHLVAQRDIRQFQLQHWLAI

Compound	inhibition at 1 µM [1] [%]	EC50 ([3H]NE uptake, MDCK-Net6 cells) [nM]	inhibition at 1 µM [2] [%]
OC1(C(CN2CCNCC2)c2ccc3ccccc3c2)CCC1 (centres unmarked) [Example 5, 1-[1-(2-naphthyl)-2-piperazin-1-ylethyl]cyclobutanol Dihydrochloride]	97	160	–
OC1(C(CN2CCNCC2)c2cccc(Cl)c2)CCCCC1 (centres unmarked) [Example 1, 1-[1-(3-chlorophenyl)-2-piperazin-1-ylethyl]cyclohexanol Dihydrochloride]	–	18	–
COc1ccc2scc(C(CN3CCNCC3)C3(O)CCCCC3)c2c1 (centres unmarked) [Example 279, 1-[1-(5-methoxy-1-benzothien-3-yl)-2-piperazin-1-ylethyl]cyclohexanol Dihydrochloride]	16	–	–
OC1(C(CN2CCNCC2)c2ccsc2Cl)CCCCC1 (centres unmarked) [Example 156, 1-[1-(2-chlorothien-3-yl)-2-piperazin-1-ylethyl]cyclohexanol Dihydrochloride]	–	720	55
OC1(C(CN2CCNCC2)c2csc(Cl)c2)CCCCC1 (centres unmarked) [Example 144, 1-[1-(5-chlorothien-3-yl)-2-piperazin-1-ylethyl]cyclohexanol Dihydrochloride]	–	100	86
NC1CCN(CC(c2csc(Cl)c2)C2(O)CCCCC2)CC1 (centres unmarked) [Example 145, 1-[2-(4-aminopiperidin-1-yl)-1-(5-chlorothien-3-yl)ethyl]cyclohexanol Dihydrochloride]	–	–	38
OC1(C(CN2CCNCC2)c2ccc(Cl)s2)CCCCC1 (centres unmarked) [Example 142, 1-[1-(5-chlorothien-2-yl)-2-piperazin-1-ylethyl]cyclohexanol Dihydrochloride]	51	–	–
OC1(C(CN2CCNCC2)c2cccnc2)CCCCC1 (centres unmarked) [Example 337, 1-(2-piperazin-1-yl-1-pyridin-3-ylethyl)cyclohexanol Trihydrochloride]	4.8	–	–
OC1(C(CN2CCNCC2)c2ccc3ccccc3c2)CCCCC1 (centres unmarked) [Example 63, 1-[1-(2-naphthyl)-2-piperazin-1-ylethyl]cyclohexanol Dihydrochloride]	26	–	–
CN1CCN(CC(c2csc(Cl)c2)C2(O)CCCCC2)CC1 (centres unmarked) [Example 159, 1-[1-(5-chlorothien-3-yl)-2-(4-methylpiperazin-1-yl)ethyl]cyclohexanol Dihydrochloride]	–	25	88
OC1(C(CN2CCNCC2)c2cnc3ccccc3c2)CCCCC1 (centres unmarked) [Example 262, 1-(2-piperazin-1-yl-1-quinolin-3-ylethyl)cyclohexanol Dihydrochloride]	19	–	–
OC1(C(CN2CCOCC2)c2ccc3ccccc3c2)CCCCC1 (centres unmarked) [Example 106, 1-[2-morpholin-4-yl-1-(2-naphthyl)ethyl]cyclohexanol Hydrochloride]	2	–	–
OC1(C(CN2CCNCC2)c2csc3ccccc23)CCCCC1 (centres unmarked) [Example 146, 1-[1-(1-benzothien-3-yl)-2-piperazin-1-ylethyl]cyclohexanol Dihydrochloride]	–	120	82
OC1(C(CN2CCNCC2)c2cc(Br)cs2)CCCCC1 (centres unmarked) [Example 281, 1-[1-(4-bromothien-2-yl)-2-piperazin-1-ylethyl]cyclohexanol Dihydrochloride]	91	–	–
OC1(C(CN2CCNCC2)c2cc3ccccc3s2)CCCCC1 (centres unmarked) [Example 261, 1-[1-(1-benzothien-2-yl)-2-piperazin-1-ylethyl]cyclohexanoldihydrochloride]	60	–	–
OC1(C(CN2CCNCC2)c2ccc(Br)s2)CCCCC1 (centres unmarked) [Example 143, 1-[1-(5-bromothien-2-yl)-2-piperazin-1-ylethyl]cyclohexanol Dihydrochloride]	47	–	–

Continued, in another order:

inhibition at 1 µM [1] [%]	Compound	EC50 ([3H]NE uptake, MDCK-Net6 cells) [nM]	inhibition at 1 µM [2] [%]
86	OC1(C(CN2CCNCC2)c2cccc3ccccc23)CCCCC1 (centres unmarked) [Example 21, 1-[1-(1-naphthyl)-2-piperazin-1-ylethyl]cyclohexanol Dihydrochloride]	57	–
3	CN1CCC(O)(C(CN2CCOCC2)c2ccc3ccccc3c2)CC1 (centres unmarked) [Example 102, 1-methyl-4-[2-morpholin-4-yl-1-(2-naphthyl)ethyl]piperidin-4-ol Hydrochloride]	–	–
32	Cn1cc(C(CN2CCNCC2)C2(O)CCCCC2)c2ccccc21 (centres unmarked) [Example 154, 1-[1-(1-methyl-1H-indol-3-yl)-2-piperazin-1-ylethyl]cyclohexanol Dihydrochloride]	–	–
36	CN1CCN(CC(c2cccc3ccccc23)C2(O)CCCC2)CC1 (centres unmarked) [Example 56, 1-[2-(4-methylpiperazin-1-yl)-1-(1-naphthyl)ethyl]cyclopentanol Dihydrochloride]	–	–
26	CN1CCN(CC(c2cccc3ccccc23)C2(O)CCC2)CC1 (centres unmarked) [Example 69, 1-[2-(4-methylpiperazin-1-yl)-1-(1-naphthyl)ethyl]cyclobutanol Dihydrochloride]	–	–
44	CN1CCN(CC(c2cccc3ccccc23)C2(O)CCCCCC2)CC1 (centres unmarked) [Example 272, 1-[2-(4-methylpiperazin-1-yl)-1-(1-naphthyl)ethyl]cycloheptanol Dihydrochloride]	–	–
5.1	CCC1CCC(O)(C(CN2CCN(C)CC2)c2cccc3ccccc23)CC1 (centres unmarked) [Example 328, 4-ethyl-1-[2-(4-methylpiperazin-1-yl)-1-(1-naphthyl)ethyl]cyclohexanol Dihydrochloride]	–	–
33	CN1CCC(O)(C(CN2CCNCC2)c2ccc3ccccc3c2)CC1 (centres unmarked) [Example 59, 1-methyl-4-[1-(2-naphthyl)-2-piperazin-1-ylethyl]piperidin-4-ol Dihydrochloride]	–	–
4	CN1CCN(CC(c2cccc3ccccc23)C2(O)CCC(C(C)(C)C)CC2)CC1 (centres unmarked) [Example 100, 4-tert-butyl-1-[2-(4-methylpiperazin-1-yl)-1-(1-naphthyl)ethyl]cyclohexanol Dihydrochloride]	–	–
28	CN1CCN(CC(c2ccc3ccccc3c2)C2(O)CCCCC2)CC1 (centres unmarked) [Example 64, 1-[2-(4-methylpiperazin-1-yl)-1-(2-naphthyl)ethyl]cyclohexanol Dihydrochloride]	–	–
22	CC(C)(C)C1CCC(O)(C(CN2CCNCC2)c2cccc3ccccc23)CC1 (centres unmarked) [Example 76, 4-tert-butyl-1-[1-(1-naphthyl)-2-piperazin-1-ylethyl]cyclohexanol Dihydrochloride]	–	–
41	OC1(C(CN2CCNCC2)c2cccc3ccccc23)CCCCCCC1 (centres unmarked) [Example 269, 1-[1-(1-naphthyl)-2-piperazin-1-ylethyl]cyclooctanol Dihydrochloride]	–	–
27	OC1(C(CN2CCNCC2)c2cccc3ccccc23)CCCCCC1 (centres unmarked) [Example 271, 1-[1-(1-naphthyl)-2-piperazin-1-ylethyl]cycloheptanol Dihydrochloride]	–	–
16	CC1CCC(O)(C(CN2CCN(C)CC2)c2cccc3ccccc23)CC1 (centres unmarked) [Example 333, 4-methyl-1-[2-(4-methylpiperazin-1-yl)-1-(1-naphthyl)ethyl]cyclohexanol Dihydrochloride]	–	–
0	OC1(C(CN2CCOCC2)c2ccc3ccccc3c2)CCC1 (centres unmarked) [Example 109, 1-[2-morpholin-4-yl-1-(2-naphthyl)ethyl]cyclobutanol Hydrochloride]	–	–
23	OC1(C(CN2CCNCC2)c2cccc3ccccc23)CCC1 (centres unmarked) [Example 68, 1-[1-(1-naphthyl)-2-piperazin-1-ylethyl]cyclobutanol Dihydrochloride]	–	–

Source: patent US7419980B2, “Fused-aryl and heteroaryl derivatives and methods of their use” (Wyeth, priority 2003, dated 2008)
